Reference: the NIST ThermoML archive (doi:10.1016/j.jct.2016.04.021)
Numbers after ± are expanded uncertainties.

Details: for viscosity / mass density: 101.33 kPa, Liquid; for viscosity: Concentric cylinders viscometry; for mass density: Vibrating tube method; for Glass transition temperature: DSC; for Normal melting temperature: Crystal, DTA

With `CCCCC(CC)CCC(=O)[O-].CCCCCCCC[N+](C)(CCCCCCCC)CCCCCCCC` [methyltrioctylammonium 4-ethyloctanoate] the viscosity (293.15 K) was 5743.4 ± 800 mPa·s, the mass density (293.15 K) was 893.1 ± 18 kg/m3 and the viscosity (298.15 K) was 3733.4 ± 510 mPa·s. It also gave a mass density (298.15 K) of 890.1 ± 18 kg/m3, a viscosity (303.15 K) of 2468.1 ± 330 mPa·s and a mass density (303.15 K) of 887.1 ± 18 kg/m3. It also gave a viscosity (308.15 K) of 1672.3 ± 220 mPa·s, a mass density (308.15 K) of 884 ± 18 kg/m3 and a viscosity (313.15 K) of 1159.3 ± 150 mPa·s. The mass density (313.15 K) was 881 ± 18 kg/m3, the viscosity (318.15 K) was 820.4 ± 110 mPa·s and the mass density (318.15 K) was 877.9 ± 18 kg/m3. The viscosity (323.15 K) was 592.1 ± 77 mPa·s, the mass density (323.15 K) was 874.9 ± 17 kg/m3 and the viscosity (328.15 K) was 434.7 ± 56 mPa·s. The mass density (328.15 K) was 871.8 ± 17 kg/m3, the viscosity (333.15 K) was 324.9 ± 42 mPa·s and the mass density (333.15 K) was 868.8 ± 17 kg/m3. The viscosity (338.15 K) was 246.3 ± 32 mPa·s, the mass density (338.15 K) was 865.8 ± 17 kg/m3 and the viscosity (343.15 K) was 189.2 ± 24 mPa·s. The mass density (343.15 K) was 862.8 ± 17 kg/m3, the viscosity (348.15 K) was 147.4 ± 19 mPa·s and the mass density (348.15 K) was 859.8 ± 17 kg/m3. It also gave a viscosity (353.15 K) of 116.1 ± 15 mPa·s, a mass density (353.15 K) of 856.8 ± 17 kg/m3 and a viscosity (358.15 K) of 92.4 ± 12 mPa·s. It also gave a mass density (358.15 K) of 853.9 ± 17 kg/m3, a viscosity (363.15 K) of 74.1 ± 9.4 mPa·s and a mass density (363.15 K) of 850.9 ± 17 kg/m3. For the same compound, the Glass transition temperature was -76.6 ± 1 °C.

`CCCCCCCC/C=C\CCCCCCCC(=O)[O-].CCCCCCCC[N+](C)(CCCCCCCC)CCCCCCCC` [methyltrioctylammonium oleate] gave a viscosity (293.15 K) of 2934 ± 240 mPa·s, a mass density (293.15 K) of 890.5 ± 7.6 kg/m3 and a viscosity (298.15 K) of 1971.4 ± 150 mPa·s. The mass density (298.15 K) was 887.5 ± 7.5 kg/m3, the viscosity (303.15 K) was 1354.6 ± 100 mPa·s and the mass density (303.15 K) was 884.5 ± 7.5 kg/m3. For the same compound, the viscosity (308.15 K) was 957.7 ± 70 mPa·s, the mass density (308.15 K) was 881.5 ± 7.5 kg/m3 and the viscosity (313.15 K) was 692.7 ± 49 mPa·s. It also gave a mass density (313.15 K) of 878.5 ± 7.4 kg/m3, a viscosity (318.15 K) of 511.3 ± 36 mPa·s and a mass density (318.15 K) of 875.5 ± 7.4 kg/m3. For the same compound, the viscosity (323.15 K) was 384.4 ± 26 mPa·s, the mass density (323.15 K) was 872.5 ± 7.4 kg/m3 and the viscosity (328.15 K) was 293.8 ± 20 mPa·s. The mass density (328.15 K) was 869.5 ± 7.4 kg/m3, the viscosity (333.15 K) was 227.9 ± 15 mPa·s and the mass density (333.15 K) was 866.6 ± 7.3 kg/m3. The viscosity (338.15 K) was 179.2 ± 12 mPa·s, the mass density (338.15 K) was 863.6 ± 7.3 kg/m3 and the viscosity (343.15 K) was 142.7 ± 9.2 mPa·s. It also gave a mass density (343.15 K) of 860.7 ± 7.3 kg/m3, a viscosity (348.15 K) of 114.3 ± 7.3 mPa·s and a mass density (348.15 K) of 857.8 ± 7.3 kg/m3. It also gave a viscosity (353.15 K) of 92.3 ± 5.9 mPa·s, a mass density (353.15 K) of 854.9 ± 7.2 kg/m3 and a viscosity (358.15 K) of 74.9 ± 4.8 mPa·s. For the same compound, the mass density (358.15 K) was 852 ± 7.2 kg/m3, the viscosity (363.15 K) was 61.8 ± 3.9 mPa·s and the mass density (363.15 K) was 849.1 ± 7.2 kg/m3. For the same compound, the Normal melting temperature was -5.9 ± 0.5 °C and the Glass transition temperature was -56.3 ± 1.2 °C.

`CCCCCCCC/C=C\CCCCCCCC(=O)[O-].CCCCCC[N+](CCCCCC)(CCCCCC)CCCCCC` [tetrahexylammonium oleate] showed a viscosity (293.15 K) of 2509.9 ± 200 mPa·s, a mass density (293.15 K) of 889.9 ± 5.5 kg/m3 and a viscosity (298.15 K) of 1623.7 ± 120 mPa·s. For the same compound, the mass density (298.15 K) was 886.9 ± 5.5 kg/m3, the viscosity (303.15 K) was 1086.6 ± 79 mPa·s and the mass density (303.15 K) was 883.9 ± 5.5 kg/m3. It also gave a viscosity (308.15 K) of 749 ± 53 mPa·s, a mass density (308.15 K) of 880.9 ± 5.5 kg/m3 and a viscosity (313.15 K) of 530.9 ± 36 mPa·s. The mass density (313.15 K) was 877.8 ± 5.4 kg/m3, the viscosity (318.15 K) was 384.9 ± 26 mPa·s and the mass density (318.15 K) was 874.8 ± 5.4 kg/m3. For the same compound, the viscosity (323.15 K) was 285.3 ± 19 mPa·s, the mass density (323.15 K) was 871.8 ± 5.4 kg/m3 and the viscosity (328.15 K) was 215.5 ± 14 mPa·s. For the same compound, the mass density (328.15 K) was 868.8 ± 5.4 kg/m3, the viscosity (333.15 K) was 165.4 ± 10 mPa·s and the mass density (333.15 K) was 865.8 ± 5.4 kg/m3. For the same compound, the viscosity (338.15 K) was 129.5 ± 8.2 mPa·s, the mass density (338.15 K) was 862.9 ± 5.3 kg/m3 and the viscosity (343.15 K) was 102.9 ± 6.4 mPa·s. The mass density (343.15 K) was 859.9 ± 5.3 kg/m3, the viscosity (348.15 K) was 82.8 ± 5.1 mPa·s and the mass density (348.15 K) was 857 ± 5.3 kg/m3. It also gave a viscosity (353.15 K) of 67.5 ± 4.2 mPa·s, a mass density (353.15 K) of 854 ± 5.3 kg/m3 and a viscosity (358.15 K) of 55.5 ± 3.4 mPa·s. The mass density (358.15 K) was 851 ± 5.3 kg/m3, the viscosity (363.15 K) was 45.5 ± 2.8 mPa·s and the mass density (363.15 K) was 847.9 ± 5.3 kg/m3. The Glass transition temperature was -83.2 ± 0.8 °C.

With `CCCCCCCC/C=C\CCCCCCCC(=O)[O-].CCCCCCCC[N+](CCCCCCCC)(CCCCCCCC)CCCCCCCC` [tetraoctylammonium oleate] the viscosity (293.15 K) was 1689.3 ± 130 mPa·s, the mass density (293.15 K) was 878.4 ± 7.4 kg/m3 and the viscosity (298.15 K) was 1153.4 ± 86 mPa·s. The mass density (298.15 K) was 875.3 ± 7.4 kg/m3, the viscosity (303.15 K) was 804.8 ± 58 mPa·s and the mass density (303.15 K) was 872.3 ± 7.4 kg/m3. For the same compound, the viscosity (308.15 K) was 575.4 ± 40 mPa·s, the mass density (308.15 K) was 869.2 ± 7.4 kg/m3 and the viscosity (313.15 K) was 420.8 ± 29 mPa·s. The mass density (313.15 K) was 866.1 ± 7.3 kg/m3, the viscosity (318.15 K) was 314.4 ± 21 mPa·s and the mass density (318.15 K) was 863.1 ± 7.3 kg/m3. For the same compound, the viscosity (323.15 K) was 239.4 ± 16 mPa·s, the mass density (323.15 K) was 860.1 ± 7.3 kg/m3 and the viscosity (328.15 K) was 185.4 ± 12 mPa·s. The mass density (328.15 K) was 857.1 ± 7.2 kg/m3, the viscosity (333.15 K) was 146.2 ± 9.5 mPa·s and the mass density (333.15 K) was 854.1 ± 7.2 kg/m3. It also gave a viscosity (338.15 K) of 117 ± 7.5 mPa·s, a mass density (338.15 K) of 851.1 ± 7.2 kg/m3 and a viscosity (343.15 K) of 94.9 ± 6.1 mPa·s. It also gave a mass density (343.15 K) of 848.2 ± 7.2 kg/m3, a viscosity (348.15 K) of 77.9 ± 4.9 mPa·s and a mass density (348.15 K) of 845.2 ± 7.1 kg/m3. It also gave a viscosity (353.15 K) of 64.1 ± 4.1 mPa·s, a mass density (353.15 K) of 842.2 ± 7.1 kg/m3 and a viscosity (358.15 K) of 53.5 ± 3.4 mPa·s. For the same compound, the mass density (358.15 K) was 839.2 ± 7.1 kg/m3, the viscosity (363.15 K) was 44.3 ± 2.8 mPa·s and the mass density (363.15 K) was 836.1 ± 7.1 kg/m3. It also gave a Normal melting temperature of -29.5 ± 0.7 °C and a Glass transition temperature of -79.8 ± 1.5 °C.
